Laboratory results taken from patent publication US11406589B2, “Cutibacterium granulosum strain, and composition comprising such strain or culture thereof for preventing or treating acne” (GENOME AND COMPANY, priority 2018, dated 2022).

Assays:
filaggrin = experiment: Skin barrier function: filaggrin RNA expression in HaCaT cell line; assay type: cell-based, human; conditions: 24 hours, retinoic acid 1 μM (positive control)
[1] = test system: HAS3 (hyaluronic acid synthase); experiment: Skin moisturizing function: HAS3 RNA expression in HaCaT cell line; assay type: cell-based, human; conditions: 24 hours, retinoic acid 1 μM (positive control)
Method: (§1) To investigate a function for a skin moisturizing effect by GENSCO2 fermented filtrates, it was confirmed that the fermented filtrates of GENSCO2 were treated to the HaCaT cell line by % to the cell culture solution, and then were reacted for 24 hours to confirm the expression of HAS3 (hyaluronic acid synthase) and aquaporin which were markers of the skin moisturizing function on RNA.

claudin-1 = experiment: Skin barrier function: claudin-1 RNA expression in HaCaT cell line; assay type: cell-based, human; conditions: 24 hours, retinoic acid 1 μM (positive control)
aquaporin = experiment: Skin moisturizing function: aquaporin RNA expression in HaCaT cell line; assay type: cell-based, human; conditions: 24 hours, retinoic acid 1 μM (positive control)
Method: as §1

[2] = test system: Staphylococcus aureus KCTC 1621; experiment: Growth inhibition, overlay clear zone test; assay type: cell-based; conditions: overlay on RCM agar, about 40 hours; triclosan positive control 10 mg/ml
Text: (§2) The effect of growth inhibition of S. aureus and C. acnes was confirmed by observing formation of a clear zone. […] The experiment was progressed, expecting that S. aureus and C. acnes around Cutibacterium granulosum GENSC02 could not grow and they became transparent, if Cutibacterium granulosum GENSC02 had the effect of inhibiting the growth of bacteria. The Cutibacterium granulosum GENSC02 culture broth was collected with a platinum loop and was anaerobically cultured in a thin RCM agar plate at 37° C. for 72 hours by drawing a line about 2.5 cm. After confirming that Cutibacterium granulosum GENSC02 sufficiently grew, S. aureus and C. acnes strains adjusted to 10^4 cfu/ml were inoculated in 10 ml RCM agar at about 45° C. which was not yet solidified, and they were well suspended before the medium was hardened, and they were evenly solidified by pouring them on the agar plate in which Cutibacterium granulosum GENSC02 grew. In the solidified agar plate, S. aureus and C. acnes were further cultured anaerobically at 37° C. for about 40 hours and about 72 hours, respectively, to observe the size of the clear zone appearing around Cutibacterium granulosum GENSC02. As the negative control group, phosphate-buffered saline (PBS) was used, and as the positive control group, triclosan was used, and S. aureus and C. acnes were treated at an amount of 10 mg/ml and 200 mg/ml, respectively.

[3] = test system: Cutibacterium acnes ATCC 6919; experiment: Growth inhibition, overlay clear zone test; assay type: cell-based; conditions: overlay on RCM agar, about 72 hours; triclosan positive control 200 mg/ml
Text: as §2

| SMILES | expression of filaggrin (filaggrin) | expression of HAS3 (hyaluronic acid synthase) [1] | expression of claudin-1 (claudin-1) | expression of aquaporin (aquaporin) | growth inhibition of S. aureus (clear zone) [2] | growth inhibition of C. acnes (clear zone) [3] |
| --- | --- | --- | --- | --- | --- | --- |
| CC1=C(/C=C/C(C)=C/C=C/C(C)=C/C(=O)O)C(C)(C)CCC1 [retinoic acid] | 1.5 times | 2˜4 times | 1.5 times | 2˜4 times | – | – |
| Oc1cc(Cl)ccc1Oc1ccc(Cl)cc1Cl [triclosan] | – | – | – | – | much smaller area than GENSC02 treatment | much smaller area than GENSC02 treatment |
